From PubChem BioAssay (NCI)
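Briefly, cells in 96-well plates were exposed to five compound concentrations for 48 h, and endpoints were estimated by linear interpolation. TGI denotes the concentration required for complete inhibition of growth.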

What was measured:
Experiment in all cases: NCI anticancer screen, dose series, 48 h
786-0 renal = system: 786-0 renal
A498 renal = system: A498 renal
A549 NSCLC = system: A549 NSCLC
HL-60(TB) leukemia = system: HL-60(TB) leukemia
HOP-62 NSCLC = system: HOP-62 NSCLC
HT29 colon = system: HT29 colon
MDA-MB-231 breast = system: MDA-MB-231 breast
MDA-MB-435 = system: MDA-MB-435
MOLT-4 leukemia = system: MOLT-4 leukemia
NCI-H522 lung = system: NCI-H522 lung
SF-268 CNS = system: SF-268 CNS
SK-MEL-28 melanoma = system: SK-MEL-28 melanoma
SK-MEL-5 melanoma = system: SK-MEL-5 melanoma

Structure (SMILES) | TGI (786-0 renal) | TGI (A498 renal) | TGI (A549 NSCLC) | TGI (HL-60(TB) leukemia) | TGI (HOP-62 NSCLC) | TGI (HT29 colon) | TGI (MDA-MB-231 breast) | TGI (MDA-MB-435) | TGI (MOLT-4 leukemia) | TGI (NCI-H522 lung) | TGI (SF-268 CNS) | TGI (SK-MEL-28 melanoma) | TGI (SK-MEL-5 melanoma)
C=C1CC[C@@H](CCC2CCC3(OC2)O[C@]2(O)CC[C@@]3(C)OC2(C)C)C(C)(C)[C@H]1C/C=C1\CCOC1=O (stereo not given in full) | 31.3 µM | 34.9 µM | > 100 µM | 17 µM | > 100 µM | 31.1 µM | > 80.4 µM | 86.4 µM | 23.9 µM | > 58.9 µM | > 100 µM | > 100 µM | 4.93 µM
NCCOc1cccc(C2(N3CCCCC3)CCCCC2)c1 | 26.1 µM | 98.6 µM | > 100 µM | 89.2 µM | > 100 µM | 41.2 µM | 46.3 µM | 33.6 µM | 48.7 µM | 36.1 µM | 86.7 µM | 35.5 µM | 30.1 µM
CC(=O)c1ccc(Nc2c3c(nc4ccccc24)CCCC3)cc1 | > 100 µM | > 59.7 µM | > 95.5 µM | > 100 µM | > 47.3 µM | 42.6 µM | > 100 µM | 13.8 µM | 73.8 µM | 16.6 µM | > 100 µM | > 100 µM | > 59.2 µM
N#Cc1ccccc1OCCOc1ccccc1C#N | > 100 µM | > 100 µM | > 100 µM | > 100 µM | > 100 µM | > 100 µM | > 100 µM | > 100 µM | > 100 µM | > 100 µM | > 100 µM | > 100 µM | > 100 µM
CCN(CC)CCNc1ccc([N+](=O)[O-])c2nc3ccc(OC)cc3c(NCCN(CC)CC)c12 | 1.56 µM | 4.05 µM | 3.4 µM | 2.53 µM | 3.75 µM | 2.63 µM | 2.45 µM | > 4.78 µM | > 3.13 µM | 2.51 µM | > 10 µM | > 8.37 µM | 2.98 µM
S=C1Cc2c(-c3ccccc3)cc(-c3cccc(Cl)c3)nc2-c2ccccc2N1 | 2.21 µM | 10.4 µM | 22.5 µM | 54.9 µM | 6.48 µM | 11.5 µM | 5.66 µM | > 60.9 µM | > 90.2 µM | 13.1 µM | 17.7 µM | 51.8 µM | > 81.7 µM
[B]C(=O)NC(CC(C)C)C(=O)NCC(=O)NC1c2ccsc2C(=O)C1O (stereo not given) (tested in a mixture with another compound) | > 100 µM | > 100 µM | > 100 µM | > 100 µM | > 100 µM | > 100 µM | > 100 µM | > 100 µM | > 100 µM | > 100 µM | > 100 µM | > 100 µM | > 100 µM
CSc1nncc(-c2cc3c(c(SC)n2)CCCC3)n1 | > 100 µM | > 100 µM | > 100 µM | > 100 µM | > 100 µM | > 100 µM | > 100 µM | > 100 µM | > 100 µM | > 100 µM | > 100 µM | > 100 µM | > 100 µM
COC(CN(C)C(=S)Nc1cccc2ccccc12)OC | > 10 µM | > 10 µM | > 10 µM | > 10 µM | > 10 µM | > 10 µM | > 10 µM | > 10 µM | > 10 µM | > 10 µM | > 10 µM | > 10 µM | > 10 µM
CN(NC1=NCCO1)c1ccc2ccccc2c1 | > 100 µM | > 100 µM | > 100 µM | 52.7 µM | > 100 µM | > 100 µM | > 100 µM | > 100 µM | > 100 µM | > 100 µM | > 100 µM | > 100 µM | 93.3 µM
COC(=O)/C=C(\C(=O)OC)c1cc(C)c2cc(C(C)C)ccc(C)c1-2 | > 100 µM | > 100 µM | > 100 µM | > 100 µM | > 100 µM | 26.7 µM | > 100 µM | > 100 µM | > 100 µM | 50.3 µM | > 100 µM | > 100 µM | 80 µM
Cc1c(C)c(S(=O)(=O)N(CCCCN)OCCCN)c(C)c2c1OC(C)(C)CC2 | 31.9 µM | 41.6 µM | 56.3 µM | > 100 µM | 32.6 µM | 40.4 µM | 99.4 µM | 45.1 µM | 75.6 µM | 34.1 µM | 49.6 µM | 50.7 µM | > 100 µM
Cc1nc2c(sc3nc4c(cc32)CCC4)c(=O)o1 | > 100 µM | > 100 µM | > 100 µM | > 100 µM | > 100 µM | > 100 µM | > 100 µM | 99.3 µM | > 100 µM | 77.9 µM | > 100 µM | > 100 µM | > 100 µM
CCN1CCC(O)(c2ccc([N+](=O)[O-])cc2)C(C(=O)c2ccc([N+](=O)[O-])cc2)C1 (stereo not given) | 29.9 µM | 46.2 µM | > 100 µM | > 100 µM | > 100 µM | > 100 µM | 41.9 µM | 43.5 µM | 58 µM | 15.1 µM | 46 µM | 33.5 µM | 35.7 µM
C[C@@H](CC(=O)OCc1ccccc1)OC1OC(COC(=O)C(C)(C)C)C(OC(=O)C(C)(C)C)C(OC(=O)C(C)(C)C)C1OC(=O)C(C)(C)C (stereo not given in full) | > 100 µM | > 100 µM | > 100 µM | > 100 µM | > 100 µM | > 100 µM | > 100 µM | > 100 µM | > 100 µM | > 100 µM | > 100 µM | > 100 µM | > 100 µM
